# Results: ChEMBL document CHEMBL5550113, “Bioisoteres for carboxylic acids: From ionized isosteres to novel unionized replacements” (Bioorg Med Chem, 2024)
# Species on record: Cavia porcellus
# Assay: Binding affinity to Guinea pig Leukotriene receptor
# Conditions: filed as antagonist
row,pKb,SMILES
1,9.69,COc1cc(C(=O)NS(=O)(=O)c2ccccc2)ccc1Cc1cn(C)c2ccc(NC(=O)OC3CCCC3)cc12

# Test system: not listed separately
# Assay: Toxicity in po dosed Guinea pig assessed as effective dose
# Type: organism-based, Cavia porcellus
# Conditions: in vivo
row,SMILES,ED50 [mg/kg]
1,COc1cc(C(=O)NS(=O)(=O)c2ccccc2)ccc1Cc1cn(C)c2ccc(NC(=O)OC3CCCC3)cc12,2.5
2,COc1cc(C(=O)NS(=O)(=O)c2ccccc2C)ccc1Cc1cn(C)c2ccc(NC(=O)OC3CCCC3)cc12 [ZAFIRLUKAST],0.3

# Target: CDK12/Cyclin K (Homo sapiens, UniProt Q9NYV4)
# Sequence (O75909 whole entry): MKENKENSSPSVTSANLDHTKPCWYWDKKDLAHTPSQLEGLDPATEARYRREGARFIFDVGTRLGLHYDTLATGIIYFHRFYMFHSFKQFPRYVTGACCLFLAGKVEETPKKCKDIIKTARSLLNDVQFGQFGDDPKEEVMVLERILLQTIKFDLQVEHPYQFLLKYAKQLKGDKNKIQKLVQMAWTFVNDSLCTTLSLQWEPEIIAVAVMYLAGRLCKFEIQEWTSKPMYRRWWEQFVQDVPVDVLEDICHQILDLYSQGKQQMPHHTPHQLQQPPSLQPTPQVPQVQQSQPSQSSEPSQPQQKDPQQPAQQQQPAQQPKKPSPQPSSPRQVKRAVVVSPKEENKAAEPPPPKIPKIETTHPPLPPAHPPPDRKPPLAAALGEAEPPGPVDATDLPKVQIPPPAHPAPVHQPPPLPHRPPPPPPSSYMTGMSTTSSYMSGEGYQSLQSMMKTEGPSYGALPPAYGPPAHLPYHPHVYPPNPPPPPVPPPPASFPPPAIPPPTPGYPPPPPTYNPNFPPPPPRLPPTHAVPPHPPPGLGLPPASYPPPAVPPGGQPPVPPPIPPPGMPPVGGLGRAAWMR
# Sequence (Q9NYV4 whole entry): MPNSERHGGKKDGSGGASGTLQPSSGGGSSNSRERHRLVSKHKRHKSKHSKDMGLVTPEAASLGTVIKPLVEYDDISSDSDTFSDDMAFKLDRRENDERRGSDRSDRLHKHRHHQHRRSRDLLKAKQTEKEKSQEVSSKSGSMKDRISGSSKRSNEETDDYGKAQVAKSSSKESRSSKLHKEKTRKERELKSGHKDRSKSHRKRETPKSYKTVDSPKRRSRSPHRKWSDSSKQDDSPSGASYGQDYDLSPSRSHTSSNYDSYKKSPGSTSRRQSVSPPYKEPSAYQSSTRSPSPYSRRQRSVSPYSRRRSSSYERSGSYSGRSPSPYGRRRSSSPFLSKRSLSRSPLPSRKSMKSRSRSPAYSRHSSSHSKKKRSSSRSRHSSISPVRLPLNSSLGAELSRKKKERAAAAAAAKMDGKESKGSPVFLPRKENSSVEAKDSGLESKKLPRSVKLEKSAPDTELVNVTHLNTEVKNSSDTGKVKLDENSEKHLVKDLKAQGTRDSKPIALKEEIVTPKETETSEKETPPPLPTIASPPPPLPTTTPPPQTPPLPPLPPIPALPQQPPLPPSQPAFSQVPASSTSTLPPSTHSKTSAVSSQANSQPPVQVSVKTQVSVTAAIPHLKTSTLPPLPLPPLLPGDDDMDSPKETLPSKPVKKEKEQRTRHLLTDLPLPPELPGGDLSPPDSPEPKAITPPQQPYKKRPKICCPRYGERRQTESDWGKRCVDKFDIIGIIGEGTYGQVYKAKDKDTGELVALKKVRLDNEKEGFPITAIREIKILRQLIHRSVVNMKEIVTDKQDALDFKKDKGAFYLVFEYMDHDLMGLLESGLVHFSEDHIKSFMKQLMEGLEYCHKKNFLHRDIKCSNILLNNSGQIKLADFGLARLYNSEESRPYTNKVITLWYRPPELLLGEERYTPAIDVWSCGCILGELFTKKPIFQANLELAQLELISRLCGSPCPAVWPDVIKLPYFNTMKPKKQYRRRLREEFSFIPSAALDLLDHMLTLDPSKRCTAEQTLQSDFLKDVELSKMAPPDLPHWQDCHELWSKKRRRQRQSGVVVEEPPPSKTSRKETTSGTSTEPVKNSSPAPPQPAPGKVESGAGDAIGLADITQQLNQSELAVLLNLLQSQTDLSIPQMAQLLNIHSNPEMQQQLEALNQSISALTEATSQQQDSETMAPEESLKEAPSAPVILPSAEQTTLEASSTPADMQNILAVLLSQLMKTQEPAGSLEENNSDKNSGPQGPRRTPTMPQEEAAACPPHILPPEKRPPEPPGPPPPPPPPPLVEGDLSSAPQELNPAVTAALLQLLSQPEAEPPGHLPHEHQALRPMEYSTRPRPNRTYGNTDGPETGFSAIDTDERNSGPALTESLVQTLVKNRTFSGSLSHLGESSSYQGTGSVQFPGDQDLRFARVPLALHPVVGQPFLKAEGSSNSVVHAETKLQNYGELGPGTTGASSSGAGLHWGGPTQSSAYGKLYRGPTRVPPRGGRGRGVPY
# Assay: Inhibition of 6His-tagged wild type CDK12/cyclin K (unknown origin) infected in insect cells incubated for 1 hr by TR-FRET assay
# Conditions: not given
row,EC50 [nM],SMILES
1,44,CC[C@H](CO)Nc1nc(NCc2ccn(-c3cccc(Cl)c3)n2)c2ncn(C(C)C)c2n1
2,182,CC[C@H](CO)Nc1nc(NCCCCCc2cccc3ccccc23)c2ncn(C(C)C)c2n1
3,60,CC[C@H](CO)Nc1nc(NCc2ccc3ccccc3c2)c2ncn(C(C)C)c2n1
4,603,CC[C@H](CO)Nc1nc(NCCCc2ccco2)c2ncn(C(C)C)c2n1
5,57,CC[C@H](CO)Nc1nc(NCCCc2ccccc2)c2ncn(C(C)C)c2n1
6,41,CC[C@H](CO)Nc1nc(NCc2nc3ccc(F)c(F)c3[nH]2)c2ncn(C(C)C)c2n1
7,36,CC[C@H](CO)Nc1nc(NCc2ccc(-c3ccncc3)cc2)c2ncn(C(C)C)c2n1
8,18,CC[C@H](CO)Nc1nc(NCCCc2ccc(C)c(C)c2)c2ncn(C(C)C)c2n1
9,21,CC[C@H](CO)Nc1nc(NCc2ccc(-c3ccccn3)c(=O)[nH]2)c2ncn(C(C)C)c2n1
10,21,CC[C@H](CO)Nc1nc(NCCCc2ccc(Cl)c(Cl)c2)c2ncn(C(C)C)c2n1
11,17,CC[C@H](CO)Nc1nc(NCc2ccc(-c3ccccc3)cc2)c2ncn(C(C)C)c2n1
12,36,CC[C@H](CO)Nc1nc(NCCCc2cccc(C)n2)c2ncn(C(C)C)c2n1
13,246,CC[C@H](CO)Nc1nc(NCCCc2ccnn2C)c2ncn(C(C)C)c2n1
14,28,CC[C@H](CO)Nc1nc(NCc2ccc(-c3ccncc3)nc2)c2ncn(C(C)C)c2n1
15,46,CC[C@H](CO)Nc1nc(NCCCc2cccc(F)c2)c2ncn(C(C)C)c2n1
16,35,CC[C@H](CO)Nc1nc(NCCCc2cccc(C)c2)c2ncn(C(C)C)c2n1
17,15,CC[C@H](CO)Nc1nc(NCc2ccc(-c3ccc(C)s3)cc2)c2ncn(C(C)C)c2n1
18,78,CC[C@H](CO)Nc1nc(NCc2ccc(-c3ccccn3)c(F)c2)c2ncn(C(C)C)c2n1
